Measurements from ChEMBL document CHEMBL1153343, “Liver X receptor agonists with selectivity for LXRbeta; N-aryl-3,3,3-trifluoro-2-hydroxy-2-methylpropionamides” (Bioorg Med Chem Lett, 2009).
pEC50: −log10 of the molar value. Converted amounts (≈) assume the structure as drawn. The source made the active and inactive calls. No cut-off for these calls is given here.

Key:
[1] = biological target: T1, Oxysterols receptor LXR-beta (Homo sapiens, UniProt P55055); assay: Agonist activity at LXRbeta ligand binding domain by FRET based SRC1 recruitment assay
T1 sequence (P55055 whole entry): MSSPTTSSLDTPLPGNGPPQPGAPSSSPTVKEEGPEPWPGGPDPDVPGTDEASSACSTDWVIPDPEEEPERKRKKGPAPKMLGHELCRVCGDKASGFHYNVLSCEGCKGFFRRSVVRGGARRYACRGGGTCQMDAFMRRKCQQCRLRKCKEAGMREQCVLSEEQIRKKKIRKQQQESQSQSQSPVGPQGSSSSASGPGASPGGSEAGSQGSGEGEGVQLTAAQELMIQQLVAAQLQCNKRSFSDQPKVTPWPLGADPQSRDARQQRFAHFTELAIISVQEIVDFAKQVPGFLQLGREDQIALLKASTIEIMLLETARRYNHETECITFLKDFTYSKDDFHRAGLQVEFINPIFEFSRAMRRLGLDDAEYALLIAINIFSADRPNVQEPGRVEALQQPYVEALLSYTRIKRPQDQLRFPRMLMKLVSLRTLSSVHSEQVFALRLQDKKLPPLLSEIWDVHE

[2] = biological target: T2, Oxysterols receptor LXR-alpha (Homo sapiens, UniProt Q13133); assay: Agonist activity at LXRalpha ligand binding domain by FRET based SRC1 recruitment assay
T2 sequence (Q13133 whole entry): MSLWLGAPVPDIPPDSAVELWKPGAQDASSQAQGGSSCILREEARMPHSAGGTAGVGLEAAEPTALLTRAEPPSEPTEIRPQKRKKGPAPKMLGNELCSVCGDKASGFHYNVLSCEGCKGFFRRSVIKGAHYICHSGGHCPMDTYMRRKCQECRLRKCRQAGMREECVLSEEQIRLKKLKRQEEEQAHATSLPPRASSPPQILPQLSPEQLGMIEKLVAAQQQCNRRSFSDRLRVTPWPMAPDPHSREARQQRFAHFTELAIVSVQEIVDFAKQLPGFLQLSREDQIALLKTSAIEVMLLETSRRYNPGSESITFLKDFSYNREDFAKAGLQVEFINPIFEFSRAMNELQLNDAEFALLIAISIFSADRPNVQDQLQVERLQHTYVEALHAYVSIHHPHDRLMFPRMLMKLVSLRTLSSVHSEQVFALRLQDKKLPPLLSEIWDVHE

[3] = biological target: T1, Oxysterols receptor LXR-beta; assay: Agonist activity at human LXRbeta expressed in human SH-SY5Y cells co-transfected with Gal4-LBD after 24 hrs by luciferase reporter gene assay; assay type: functional, cell-based
[4] = biological target: T2, Oxysterols receptor LXR-alpha; assay: Agonist activity at human LXRalpha expressed in human SH-SY5Y cells co-transfected with Gal4-LBD after 24 hrs by luciferase reporter gene assay; assay type: functional, cell-based
[5] = biological target: T3, Oxysterols receptor LXR-alpha (Homo sapiens) (UniProt Q13133); assay: Agonist activity at human LXRalpha expressed in human U2OS cells co-transfected with Gal4-LBD after 24 hrs by luciferase reporter gene assay; assay type: functional, cell-based
T3 sequence (whole entry): T2 sequence (Q13133 whole entry)

[6] = biological target: T4, Oxysterols receptor LXR-beta (Homo sapiens) (UniProt P55055); assay: Agonist activity at human LXRbeta expressed in human U2OS cells co-transfected with Gal4-LBD after 24 hrs by luciferase reporter gene assay; assay type: functional, cell-based
T4 sequence (whole entry): T1 sequence (P55055 whole entry)

Mus musculus [7] = assay: Upregulation of ABCA1 mRNA level in mouse brain homogenates at 30 umol/kg, po daily once after 3 days relative to control; assay type: functional
[8] = Half life in po dosed rat; assay type: ADME, organism-based; conditions: in vivo
[9] = Bioavailability in rat; assay type: ADME, organism-based; conditions: in vivo
Mus musculus [10] = assay: Upregulation of ABCG1 mRNA level in mouse brain homogenates at 30 umol/kg, po daily once after 3 days relative to control; assay type: functional
Mus musculus [11] = assay: Upregulation of SREBP-1c mRNA level in mouse liver at 1.0 umol/kg, po daily once after 3 days relative to control; assay type: functional
[12] = Clearance in po dosed rat; assay type: ADME, organism-based; conditions: in vivo
[13] = Solubility in 0.1 M phosphate buffer at pH 7.4 at 100 uM after 24 hrs by UV-TIC; assay type: physicochemical
[14] = Permeability across human Caco-2 cell membrane; assay type: ADME, cell-based; conditions: read-out: permeability
Mus musculus [15] = assay: Upregulation of SREBP-1c mRNA level in mouse liver at 30 umol/kg, po daily once after 3 days relative to control; assay type: functional
Rattus norvegicus = assay: Volume of distribution in po dosed rat; assay type: ADME, organism-based; conditions: in vivo

Compound	pEC50 [1]	pEC50 [2]	pEC50 [3]	pEC50 [4]	also measured
C[C@H](CC[C@@H]1OC1(C)C)[C@H]1CC[C@H]2[C@@H]3CC=C4C[C@@H](O)CC[C@]4(C)[C@H]3CC[C@]12C [24(S),25-EPOXYCHOLESTEROL]	6.54	6.55	6.40		
COC(=O)c1ccc(S(=O)(=O)N(C)c2ccc(NC(=O)C(C)(O)C(F)(F)F)c(Cl)c2)cc1 (stereo not drawn)	5.63	5.51	5.42	5.44	
CC(O)(C(=O)Nc1ccc(N(Cc2ccccc2)S(=O)(=O)c2ccccc2Cl)cc1Cl)C(F)(F)F (stereo not drawn)	6.06	< 4.00	< 4.52	< 4.52	
CN(c1ccc(NC(=O)[C@](C)(O)C(F)(F)F)c(Cl)c1)S(=O)(=O)c1ccccc1Cl	6.20		6.09	5.74	Activity [5]: inactive; Activity [6]: inactive
CC(O)(C(=O)Nc1ccc(N(CC2CC2)S(=O)(=O)c2ccccc2Cl)cc1Cl)C(F)(F)F (stereo not drawn)	6.03	5.97	< 4.52	< 4.52	
COC(=O)CCc1ccc(S(=O)(=O)N(C)c2ccc(NC(=O)C(C)(O)C(F)(F)F)c(Cl)c2)cc1 (stereo not drawn)	5.46	5.46	< 4.52	< 4.52	
CCN(c1ccc(NC(=O)C(C)(O)C(F)(F)F)c(Cl)c1)S(=O)(=O)c1ccccc1Cl (stereo not drawn)	6.10	6.00	5.12	5.07	
CN(c1ccc(NC(=O)[C@](C)(O)C(F)(F)F)c(Cl)c1)S(=O)(=O)c1ccccc1	5.72	5.48	6.02	5.30	
CN(c1ccc(NC(=O)C(C)(O)C(F)(F)F)c(Cl)c1)S(=O)(=O)c1ccc(C(=O)O)cc1 (stereo not drawn)	< 4.00	< 4.00	< 4.52	< 4.52	
C=CCN(c1ccc(NC(=O)C(C)(O)C(F)(F)F)c(Cl)c1)S(=O)(=O)c1ccccc1Cl (stereo not drawn)	6.24	6.33	< 4.52	< 4.52	
CN(c1ccc(NC(=O)C(C)(O)C(F)(F)F)c(Cl)c1)S(=O)(=O)c1ccc(CCC(=O)O)cc1 (stereo not drawn)	< 4.00	< 4.00	< 4.52	< 4.52	
O=C(O)Cc1cccc(OCCCN(Cc2cccc(C(F)(F)F)c2Cl)CC(c2ccccc2)c2ccccc2)c1	7.11	6.55	6.89	6.51	
CN(c1ccc(NC(=O)C(C)(O)C(F)(F)F)c(Cl)c1)S(=O)(=O)c1ccc(C#N)cc1 (stereo not drawn)	5.59	5.47	5.57	5.30	fold change (FC) (Mus musculus [7]): 1.25; half-life [8]: 4.4 h; bioavailability [9]: 39%; fold change (FC) (Mus musculus [10]): 1.3; Activity [5]: inactive; fold change (FC) (Mus musculus [11]): 3.6; CL/F [12]: 1.48 L/h/kg; solubility at 24 h, 100 µM [13]: 61 µM (≈ 28.2 µg/mL); Papp [14]: 280 nm/s; fold change (FC) (Mus musculus [15]): 1.3; Activity [6]: inactive; Vd (Rattus norvegicus): 4.1 L/kg
Cc1ccc(S(=O)(=O)N(C)c2ccc(NC(=O)[C@](C)(O)C(F)(F)F)c(Cl)c2)cc1	5.82	5.71	5.80	5.30	
